# According to patent US7326721B2 (Hypnion, Inc., priority 2003, dated 2008):
# Read-outs that look alike come from different tables or passages of the source.
# Legend:
# adult male Wistar rats = assay: SCORE-2000 sleep-wakefulness, locomotor activity and body temperature monitoring; assay type: in vivo, rat
# H1 histamine receptor = target: T1, H1 histamine receptor (Bos taurus, UniProt P30546); assay: Histamine H1 competitive binding assay ([3H]pyrilamine); set-up: species or system bovine; conditions: read-out: Ki H1
# T1 construct: the receptors were obtained from bovine cerebellar membrane tissue; from tissue; host or cells: bovine cerebellar membranes
# M1 muscarinic receptor = target: T2, M1 muscarinic receptor (Homo sapiens, UniProt P11229); assay: Muscarinic M1 binding assay ([3H]-scopolamine, N-methyl chloride); set-up: purchased PerkinElmer, Inc., Wellesley, Mass; host or cells: CHO cells; conditions: read-out: Ki M1
# T2 sequence (P11229 1-460): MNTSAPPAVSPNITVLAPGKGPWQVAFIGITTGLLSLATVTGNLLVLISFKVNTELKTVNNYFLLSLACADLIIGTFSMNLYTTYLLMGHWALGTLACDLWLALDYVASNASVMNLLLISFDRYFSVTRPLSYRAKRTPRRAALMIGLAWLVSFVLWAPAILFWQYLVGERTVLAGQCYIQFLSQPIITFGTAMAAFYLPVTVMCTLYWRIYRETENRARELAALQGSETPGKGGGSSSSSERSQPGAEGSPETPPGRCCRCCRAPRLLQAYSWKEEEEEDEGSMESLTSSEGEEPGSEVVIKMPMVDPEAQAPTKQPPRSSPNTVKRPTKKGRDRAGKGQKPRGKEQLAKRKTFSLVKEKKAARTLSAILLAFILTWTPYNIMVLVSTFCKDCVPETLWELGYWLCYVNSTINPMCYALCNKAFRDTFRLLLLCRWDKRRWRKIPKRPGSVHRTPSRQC
# M2 muscarinic receptor = target: T3, M2 muscarinic receptor (Homo sapiens, UniProt P08172); assay: Muscarinic M2 binding assay; set-up: purchased PerkinElmer, Inc., Wellesley, Mass; host or cells: CHO cells; conditions: read-out: Ki M2
# T3 sequence (P08172 1-466): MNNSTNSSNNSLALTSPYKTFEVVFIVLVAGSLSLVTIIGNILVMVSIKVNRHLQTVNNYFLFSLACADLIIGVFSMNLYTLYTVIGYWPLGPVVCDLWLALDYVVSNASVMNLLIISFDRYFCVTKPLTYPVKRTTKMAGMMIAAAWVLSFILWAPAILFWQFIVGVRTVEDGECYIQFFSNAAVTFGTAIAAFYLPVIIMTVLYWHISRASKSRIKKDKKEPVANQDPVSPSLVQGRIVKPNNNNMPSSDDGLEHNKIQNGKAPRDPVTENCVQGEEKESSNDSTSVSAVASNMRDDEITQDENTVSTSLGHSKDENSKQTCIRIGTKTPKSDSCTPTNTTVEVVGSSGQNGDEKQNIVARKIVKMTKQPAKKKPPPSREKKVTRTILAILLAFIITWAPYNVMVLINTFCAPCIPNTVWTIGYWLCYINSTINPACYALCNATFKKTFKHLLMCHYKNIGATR
# M3 muscarinic receptor = M3 muscarinic receptor (Homo sapiens, UniProt P20309); assay: Muscarinic M3 binding assay; set-up: purchased PerkinElmer, Inc., Wellesley, Mass; host or cells: CHO cells; conditions: read-out: Ki M3
# hERG = hERG (Homo sapiens, UniProt Q12809)
# hERG, sequence (Q12809 whole entry): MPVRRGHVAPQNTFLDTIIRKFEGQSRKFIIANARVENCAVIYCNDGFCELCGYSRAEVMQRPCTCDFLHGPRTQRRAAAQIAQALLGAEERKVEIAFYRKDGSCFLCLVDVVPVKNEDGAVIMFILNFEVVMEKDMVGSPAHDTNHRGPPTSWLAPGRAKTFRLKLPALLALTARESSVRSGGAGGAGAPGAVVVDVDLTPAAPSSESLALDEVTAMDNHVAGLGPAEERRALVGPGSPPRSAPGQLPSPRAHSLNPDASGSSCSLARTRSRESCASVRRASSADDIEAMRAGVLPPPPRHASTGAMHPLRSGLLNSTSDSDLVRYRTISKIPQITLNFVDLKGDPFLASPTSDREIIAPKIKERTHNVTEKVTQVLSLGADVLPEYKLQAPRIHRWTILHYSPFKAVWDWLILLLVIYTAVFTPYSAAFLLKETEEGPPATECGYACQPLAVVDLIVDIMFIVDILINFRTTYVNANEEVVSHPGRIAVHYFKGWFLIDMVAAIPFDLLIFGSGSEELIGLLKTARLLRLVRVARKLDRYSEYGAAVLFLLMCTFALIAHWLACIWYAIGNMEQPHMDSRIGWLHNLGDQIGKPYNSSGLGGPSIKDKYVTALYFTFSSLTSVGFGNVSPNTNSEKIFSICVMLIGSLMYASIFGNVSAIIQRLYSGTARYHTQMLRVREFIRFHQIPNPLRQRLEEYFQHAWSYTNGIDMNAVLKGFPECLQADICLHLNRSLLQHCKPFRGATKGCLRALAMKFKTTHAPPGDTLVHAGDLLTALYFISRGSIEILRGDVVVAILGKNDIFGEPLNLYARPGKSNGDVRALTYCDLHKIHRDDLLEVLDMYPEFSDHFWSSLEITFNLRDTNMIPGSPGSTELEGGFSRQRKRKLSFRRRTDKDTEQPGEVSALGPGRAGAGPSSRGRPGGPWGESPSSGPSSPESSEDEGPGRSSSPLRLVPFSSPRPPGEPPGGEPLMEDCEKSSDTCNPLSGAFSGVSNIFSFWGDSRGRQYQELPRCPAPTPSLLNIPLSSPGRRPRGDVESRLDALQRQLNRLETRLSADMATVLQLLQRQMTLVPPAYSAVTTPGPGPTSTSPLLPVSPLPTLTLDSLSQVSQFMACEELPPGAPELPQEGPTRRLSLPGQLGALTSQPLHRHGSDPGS
# T1 sequence (P30546 whole entry): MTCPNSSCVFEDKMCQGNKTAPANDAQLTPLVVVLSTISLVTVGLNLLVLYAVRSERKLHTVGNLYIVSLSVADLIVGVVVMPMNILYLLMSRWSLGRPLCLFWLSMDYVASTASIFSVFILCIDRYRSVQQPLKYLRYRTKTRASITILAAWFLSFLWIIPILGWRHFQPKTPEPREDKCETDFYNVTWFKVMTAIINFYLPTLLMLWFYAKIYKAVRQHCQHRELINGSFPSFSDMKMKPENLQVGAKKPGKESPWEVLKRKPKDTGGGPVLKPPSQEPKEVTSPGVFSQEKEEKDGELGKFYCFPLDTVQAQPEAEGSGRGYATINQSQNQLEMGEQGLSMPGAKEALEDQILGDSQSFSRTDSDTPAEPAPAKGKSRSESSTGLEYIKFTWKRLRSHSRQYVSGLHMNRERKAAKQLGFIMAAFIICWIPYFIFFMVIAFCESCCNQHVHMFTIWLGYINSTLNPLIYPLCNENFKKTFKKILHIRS
# M3 muscarinic receptor, sequence (P20309 whole entry): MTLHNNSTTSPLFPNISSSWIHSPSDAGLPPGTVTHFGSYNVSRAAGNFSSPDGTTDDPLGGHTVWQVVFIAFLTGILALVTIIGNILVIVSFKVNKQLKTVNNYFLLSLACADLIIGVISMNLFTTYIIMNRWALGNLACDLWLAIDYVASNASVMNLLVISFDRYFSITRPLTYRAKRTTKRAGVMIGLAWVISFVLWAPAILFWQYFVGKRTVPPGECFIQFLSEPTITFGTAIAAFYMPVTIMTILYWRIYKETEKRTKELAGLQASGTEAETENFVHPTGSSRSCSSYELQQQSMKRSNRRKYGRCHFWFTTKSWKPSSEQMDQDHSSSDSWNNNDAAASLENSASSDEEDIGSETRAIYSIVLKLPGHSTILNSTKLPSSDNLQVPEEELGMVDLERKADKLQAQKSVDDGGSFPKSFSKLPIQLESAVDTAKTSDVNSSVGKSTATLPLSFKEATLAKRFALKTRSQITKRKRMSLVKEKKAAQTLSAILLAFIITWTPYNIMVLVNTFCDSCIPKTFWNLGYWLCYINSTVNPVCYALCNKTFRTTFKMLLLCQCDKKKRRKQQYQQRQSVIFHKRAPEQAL
Structure (SMILES),LUSB (adult male Wistar rats; dose 10 mg/kg oral at CT-18),NREM (adult male Wistar rats; dose 10 mg/kg oral at CT-18),LUSB (adult male Wistar rats; dose 30 mg/kg oral at CT-18),NREM (adult male Wistar rats; dose 30 mg/kg oral at CT-18),LUSB (adult male Wistar rats; dose 3 mg/kg oral at CT-18),NREM (adult male Wistar rats; dose 3 mg/kg oral at CT-18),also measured
CC(C)(CN1CCC(=C2c3ccc(O)cc3COc3ccc(F)cc32)CC1)C(=O)O [Compound 60a],3.7 min,-5.2 min,,,,,
COc1ccc2c(c1)COc1ccccc1C2=C1CCN(CCC2(C(=O)O)CC2)CC1 [Compound 62b],,,,,,,Ki (H1 histamine receptor): 56.5 nM; Ki (M1 muscarinic receptor): > 10 µM; Ki (M2 muscarinic receptor): > 10 µM; Ki (M3 muscarinic receptor): > 10 µM
COc1ccc2c(c1)C(=C1CCN(CC3(C(=O)O)CC3)CC1)c1ccccc1CO2 [Compound 52b],2.9 min,7.5 min,7.1 min,26.8 min,,,
CC(C)(CN1CCC(=C2c3ccc(F)cc3COc3ccc(F)cc32)CC1)C(=O)O [Compound 48a],10 min,58.6 min,4.4 min,39.4 min,11.2 min,50.8 min,LUSB (adult male Wistar rats; dose 1 mg/kg oral at CT-18): 6.9 min; NREM (adult male Wistar rats; dose 1 mg/kg oral at CT-18): 36.7 min
CC(C)(CN1CCC(=C2c3ccc(O)cc3COc3ccccc32)CC1)C(=O)O [Compound 56a],,,4.3 min,6.4 min,,,
O=C(O)C1(CCN2CCC(=C3c4ccc(O)cc4COc4ccccc43)CC2)CC1 [Compound 63b],2.1 min,-4.8 min,,,,,
CC(C)(CCN1CCC(=C2c3ccc(C(F)(F)F)cc3COc3ccccc32)CC1)C(=O)O [Compound 64a],,,12.3 min,33.5 min,,,
O=C(O)CCN1CCC(=C2c3ccccc3COc3ccccc32)CC1 [Compound 69e],9.7 min,28.4 min,,,5.6 min,21.2 min,LUSB (adult male Wistar rats; dose 20 mg/kg oral at CT-18): 12.3 min; NREM (adult male Wistar rats; dose 20 mg/kg oral at CT-18): 54.6 min; hERG at micromolar (% blocking of the hERG channel) (hERG): −1.4% @ 1
CC(C)(CCCN1CCC(=C2c3ccccc3COc3ccccc32)CC1)C(=O)O [Compound 71a],,,3.6 min,8.1 min,,,
CC(C)(CN1CCC(=C2c3ccccc3COc3ccc(F)cc32)CC1)C(=O)O [Compound 53a],14.4 min,51.5 min,11.9 min,66.3 min,17.2 min,38.6 min,LUSB (adult male Wistar rats; dose 1 mg/kg oral at CT-18): 5 min; NREM (adult male Wistar rats; dose 1 mg/kg oral at CT-18): 14.6 min
Cc1ccc2c(c1)COc1ccccc1C2=C1CCN(CCC(C)(C)C(=O)O)CC1 [Compound 66a],,,8.8 min,27.8 min,,,
COc1ccc2c(c1)COc1ccc(OC)cc1C2=C1CCN(CC(C)(C)C(=O)O)CC1 [Compound 10a],4 min,15.1 min,6.8 min,30.9 min,1.6 min,-8.9 min,LUSB (adult male Wistar rats; dose 1 mg/kg oral at CT-18): 3.1 min; NREM (adult male Wistar rats; dose 1 mg/kg oral at CT-18): -5 min
CC(C)(CN1CCC(=C2c3ccc(F)cc3COc3ccc(O)cc32)CC1)C(=O)O [Compound 58a],7.6 min,-12.5 min,,,5.3 min,9.1 min,
O=C(O)C1(CN2CCC(=C3c4ccccc4COc4ccc(O)cc43)CC2)CC1 [Compound 55b],2.5 min,7.7 min,,,,,
CCC(CC)(CN1CCC(=C2c3ccc(F)cc3COc3ccccc32)CC1)C(=O)O [Compound 49c],,,,,,,"Ki (H1 histamine receptor): 29.9 nM; hERG at micromolar (% blocking of the hERG channel) (hERG; human, 10 µM, pH 7.4): 19.7% @ 10; Ki (M1 muscarinic receptor): > 10 µM; Ki (M2 muscarinic receptor): > 10 µM; Ki (M3 muscarinic receptor): > 10 µM"
CC(C)(CN1CCC(=C2c3ccc(C(F)(F)F)cc3COc3ccccc32)CC1)C(=O)O [Compound 54a],,,6.1 min,28.6 min,,,
